Drawing on patent publication US20240390355A1, “IRHOM2 INHIBITORS AND USES THEREOF” (NEW YORK SOCIETY FOR THE RELIEF OF THE RUPTURED AND …, priority 2021, published 2024), this text covers IC50 for 30 compounds.

Format in all cases: cell-based
Assay [1] concerns TNFα release from THP-1 cells. Description: Primary screen (Example 1a): LPS-stimulated TNFα release from THP-1 cells, HTRF. Particulars: Homo sapiens, 100 ng/mL LPS, 3 h, normalised to 50 μM Batimastat, read-out: Primary Screen XC50 TNFα. The protocol: (§1) Two separate screens to identify novel small molecule inhibitors of iRhom2/ADAM17 activity were developed. […] Therefore, the primary screen for small molecule inhibitors of iRhom2/ADAM17 was a screen for inhibitors that blocked the release of TNFα from LPS-stimulated THP-1 human myeloid cells, a process that depends on iRhom2 and ADAM17. Since the release of TNFα from THP-1 cells can be blocked at many stages of the LPS/TLR4/iRhom2/ADAM17 pathway, a secondary screen was performed for another iRhom2/ADAM17 selective substrate, Kit-ligand 2 (KL-2) (Maretzky T et al. (July 2013), “iRhom2 controls the substrate selectivity of stimulated ADAM17-dependent ectodomain shedding”, PNAS 110(28): 11433-11438) in a different human cell type, human embryonic kidney cells (HEK 293).
THP-1 cells were plated in 384 or 1,536 wells and transferred on the ultra-high throughput screening (uHTS) platform Mark III, and TNFα shedding was initiated by LPS stimulation of THP-1 cells. The extent of released TNFα was detected with the corresponding HTRF antibodies labeled with europium cryptate (donor) and d2 (acceptor). The HTRF signal was generated by proximity of europium cryptate and d2. All detection reagents were purchased from Cisbio. TNFα detection was performed according to the manufacturer's protocol (Product Insert for Cisbio TNFα (h) Kit Part #62HTNFAPEG & 62HTNFAPEH;
7.5 nL compound and controls in DMSO [10 μM in assay; 0.25% DMSO in 3 [μL Assay] were dissolved in 2 μL cell suspension [2.4E6/mL; 4800 cells/well; culture w/o PenStrep], pre-incubated at 37° C., 5% CO2, for 15 min with 1 μL LPS [100 ng/mL in 3 μL assay]. The cells were incubated at 37° C., 5% CO2, for 3 h with 2 μL of the HTRF-mix [1:300 f.c.]. After an incubation at room temperature for 2 h or longer, the HTRF readout was performed. Then data evaluation for normalization against the 50 μM Batimastat control (=100% […]) was applied. As an additional control, 300 nM Batimastat was used to monitor performance of cells and assay sensitivity over time.
Background: In TR-FRET formats the signal depends on donor and acceptor labels being close together.

Assay [2] deals with KL2 release from HEK-293 cells. Nature of the assay: Secondary screen (Example 3a): PMA-stimulated KL2 release from HEK-293 cells, AP readout. Conditions: Homo sapiens, HEK293, HEK-293 cells expressing KL2-AP, PMA 500 ng/mL, 2 h, read-out: Secondary Screen XC50 KL2. As to the method: as §1
(§2) First, expression plasmids for alkaline phosphatase (AP)-fused KL2 and TGFα were designed and generated through gene synthesis followed by subcloning into the pcDNA3.1(+)/Hygro expression vector. […] Subsequently, DNA amplifications were performed to obtain sufficient amounts of the expression vectors. The quality of DNA and gene sequences were confirmed through restriction digest and Sanger sequencing. In parallel, cell culture of THP-1 and HEK-293 cells was initiated. Master and working cell banks were prepared. Both cell lines were scaled up and transfected with the respective constructs by electroporation. During cell culturing, cell density and viability were monitored to ensure optimal conditions for the transfections. After PMA stimulation, AP-coupled KL2 or TGFα were detected by measurement of AP activity in the supernatant. […] In contrast, THP-1 cells turned out to be not a suitable transfection host resulting in a loss of cell viability after transfection. The decision was made to proceed with HEK-293 for both selectivity assays and to establish polyclonal cell lines stably expressing AP-coupled KL2 or TGFα.
(§3) After electroporation, cells were further cultured in presence of selection antibiotics, hygromycin B, to generate stably transfected polyclonal cell pools. For both assays, KL2 and TGFα shedding, the respective selected pool turned out to be suitable. Final assay conditions were determined for the selected pools. For all experiments, batimastat (30 μM) was used as positive control for full inhibition of KL2 or TGFα shedding.
(§4) 60 μL of cells (40,000/well) were added to a sterile 384-well plate. After incubation overnight at 37° C. (5% CO2), 50 μL medium were removed and 20 μL of prediluted compounds were added to the cells. After incubation for 15 min, 20 μL of PMA (500 ng/mL final conc.) were added. The cells were incubated for 2 h at 37° C. (5% CO2). Then, 20 μL of the supernatant was transferred to a fresh plate and 20 μL of pNPP (5 mM final conc.) was added. AP reaction was performed for 1 h at RT. The reaction was stopped by addition of 20 μL of NaOH (1 M final conc.) and the absorbance of pNP was measured at 405 nm.

For assay [3], the system named is TGFα release from HEK-293 cells. Description: Counter screen (Example 4a): PMA-stimulated TGFα release from HEK-293 cells, AP readout. Particulars: Homo sapiens, HEK293, HEK-293 cells expressing TGFα-AP, PMA 100 ng/mL, 2 h, read-out: Counter Screen XC50 TGFα. As to the method:
A tertiary counterscreen was also performed to monitor the release of TGFα, which is a substrate of iRhom1/ADAM17 and iRhom2/ADAM17, so its release should not be blocked by an iRhom2-selective inhibitor (Maretzky T et al. (July 2013), “iRhom2 controls the substrate selectivity of stimulated ADAM17-dependent ectodomain shedding”, PNAS 110(28): 11433-11438; and Li X et al. (May 2015), “iRhoms 1 and 2 are essential upstream regulators of ADAM17-dependent EGFR signaling”, PNAS 112(19): 6080-6085).
as §2, §3
as §4, with “of cells (20,000/well) were added” for “of cells (40,000/well) were added”, “of PMA (100 ng/mL final” for “of PMA (500 ng/mL final”, “was added. The AP reaction” for “was added. AP reaction”
(In general: Counterscreens check selectivity or assay interference.)

Turning to `O=C(c1c[nH]c(-c2nnc3n2CCCCC3)c1)c1cc(F)ccc1O` [Compound 35], the IC50 in assay [1] is 28.2 µM; in assay [2] it was over 128 µM; in assay [3], over 128 µM.
Consider `Cc1nc[nH]c1-c1nccn1-c1ccc2c(c1)CCC2` [Compound 42], for which the IC50 in assay [1] is 31 µM; in assay [2], over 128 µM; in assay [3], over 128 µM.
On to `O=C(c1c(Cl)cccc1Cl)N1CCN(Cc2ccc3c(c2)OCO3)CC1` [Compound 4], for which the results for the IC50 in assay [1], in assay [2] and in assay [3] were 30.8 µM, over 128 µM and over 128 µM, respectively.
With `CCC1CN(C(=O)c2ccc3cc[nH]c3c2)CCC(=O)N1Cc1ccccc1` (stereo not drawn) [Compound 15], the values for the IC50 in assay [1], in assay [2] and in assay [3] were under 0.802 µM, over 128 µM and over 128 µM, respectively.
As for `O=C(CCn1sc2ccccc2c1=O)Nc1ccc2cc[nH]c2c1` [Compound 33], the IC50 is 5.1 µM in assay [1], 6 µM in assay [2] and 24.1 µM in assay [3].
The corresponding values for `COc1cccc(OC)c1C(=O)N1CCN(Cc2cccc3ccccc23)CC1` [Compound 10] are 22.6 µM, 67.7 µM and over 128 µM.
Regarding `Cc1n[nH]c2c1C(c1ccccc1OC(F)F)C(C#N)=C(N)O2` (stereo not drawn) [Compound 31], the IC50 was 34.5 µM in assay [1], 32.2 µM in assay [2] and over 128 µM in assay [3].
The corresponding values for `Cc1ccc(-n2ncc3c(NC4CCCCC4)ncnc32)c(C)c1` [Compound 29] are under 0.802 µM, over 128 µM and over 128 µM.
`OC(Cc1ccccc1)Cn1cnc(-c2ccccc2)c1-c1cccnc1` (stereo not drawn) [Compound 38]: the values for the IC50 in assay [1], in assay [2] and in assay [3] were 108 µM, over 128 µM and over 128 µM, respectively.
`Cc1csc(CN2CCN(C(=O)c3c(F)cccc3Cl)CC2)n1` [Compound 8]: the IC50 in assay [1] is 1.9 µM; in assay [2], over 128 µM; in assay [3], over 128 µM.
For `COc1ccccc1-c1c(-c2ccccc2C)ncn1C1CC(C)(C)N(C)C(C)(C)C1` [Compound 39], the results for the IC50 in assay [1], in assay [2] and in assay [3] were 41.5 µM, over 128 µM and over 128 µM, respectively.
`O=C(c1ccccc1F)N1CCN(Cc2cccc(Br)c2)CC1` [Compound 6]: the IC50 is 12.4 µM in assay [1], over 128 µM in assay [2] and over 128 µM in assay [3].
Turning to `Cc1ccc(F)c(C(=O)N2CCc3nnc(CCc4ccccc4)n3CC2)c1F` [Compound 17], the IC50 in assay [1] is 15.2 µM; in assay [2] it was over 128 µM; in assay [3], over 128 µM.
With `CCC1CN(C(=O)c2ccc3c(c2)CCO3)CCC(=O)N1Cc1ccccc1` (stereo not drawn) [Compound 16], the figures for the IC50 in assay [1], in assay [2] and in assay [3] were 15.4 µM, over 128 µM and over 128 µM, respectively.
Turning to `CCC(Cn1cnc(-c2ccccc2)c1-c1ccncc1)N1CCOCC1` (stereo not drawn) [Compound 18], the IC50 is 21.8 µM in assay [1], over 128 µM in assay [2] and over 128 µM in assay [3].
On to `Cc1ccccc1C(=O)N1CCN(c2ccc(NC(=O)c3ccco3)cc2Cl)CC1` [Compound 13], for which the IC50 in assay [1] was 3.5 µM; in assay [2] it was 18 µM; in assay [3], over 128 µM.
The corresponding values for `O=C(c1ccccc1F)N1CCN(Cc2nc(C3CC3)cs2)CC1` [Compound 9] are 27.8 µM, over 128 µM and over 128 µM.
Take `Nc1cccc(-c2cnc3ccc(NCc4cccs4)nn23)c1` [Compound 21]: the IC50 was 1.3 µM in assay [1], 120 µM in assay [2] and over 128 µM in assay [3].
Consider `O=C(c1cccs1)N1CCC(Cc2ccccc2)CC1` [Compound 2], for which the IC50 in assay [1] was under 0.802 µM; in assay [2], over 128 µM; in assay [3], over 128 µM.
For `Cc1ccn(CCCn2cnc(-c3ccccc3)c2-c2ccncc2)n1` [Compound 19], the IC50 in assay [1] is 1.2 µM; in assay [2], over 128 µM; in assay [3] it was over 128 µM.
Regarding `CC(C)c1nccc(-c2c(-c3ccccc3)ncn2C[C@H]2CCCN2)n1` [Compound 40], the IC50 in assay [1] is 21 µM; in assay [2], over 128 µM; in assay [3], over 128 µM.
On to `COc1ccc(-c2cnc3sc(NCCCO)nn23)cc1OC` [Compound 32], for which the IC50 in assay [1] was 68.7 µM; in assay [2], 66.5 µM; in assay [3] it was over 128 µM.
Consider `C=C(C)Cn1c(=O)nc(N)c2c(-c3ccc(OC)cc3)csc21` [Compound 27], for which the IC50 was under 0.802 µM in assay [1], over 128 µM in assay [2] and over 128 µM in assay [3].
`Cc1ccccc1C(=O)N1CCN(Cc2cccc(Cl)c2)CC1` [Compound 5]: the IC50 in assay [1] was 1.4 µM; in assay [2], over 128 µM; in assay [3], over 128 µM.
Turning to `Cc1ccccc1C(=O)N1CCN(Cc2ccccc2)CC1` [Compound 3], the IC50 is 12.3 µM in assay [1], over 128 µM in assay [2] and over 128 µM in assay [3].
With `COCC(=O)N1CCCc2ccc(NC(=O)Nc3ccc(F)cc3)cc21` [Compound 23], the IC50 in assay [1] is 3.7 µM; in assay [2], over 128 µM; in assay [3] it was over 128 µM.
As for `c1ccc(-c2ncn(CCc3c[nH]cn3)c2-c2ccncc2)cc1` [Compound 36], the figures for the IC50 in assay [1], in assay [2] and in assay [3] were 19 µM, over 128 µM and over 128 µM, respectively.
`CNc1ccc2ncc(-c3cccc(O)c3)n2n1` [Compound 22]: the IC50 is 27.8 µM in assay [1], 8.8 µM in assay [2] and over 128 µM in assay [3].
The corresponding values for `CC(C)c1nccc(-c2c(-c3ccccc3)ncn2C[C@H]2CCCO2)n1` [Compound 41] are 11.6 µM, over 128 µM and over 128 µM.
Turning to `Cc1ccccc1C(=O)N1CCN(c2ccc(NC(=O)c3cccnc3)cc2Cl)CC1` [Compound 14], the values for the IC50 in assay [1], in assay [2] and in assay [3] were under 0.802 µM, 12.8 µM and over 128 µM, respectively.
